The source of these data is patent US20230390189A1, “OCULAR IMPLANT CONTAINING AN ACTIVE INGREDIENT” (OCULAR THERAPEUTIX, INC., priority 2020, published 2023).

One data set is described as follows: Solubility of axitinib. Format: physicochemical.
For data set [1] the following is noted: cited from earlier work; for t1/2 in the human eye: in vivo.
Data set [2] has as its system VEGF-induced vascular leakage. In words: VEGF challenge, vascular leakage scored by fluorescein angiography. Format: in vivo, Dutch belted rabbits. The following applies: 1.25 mg Avastin alone (group 3); similar degree as control.
For data set [3] the following is noted: 1.25 mg intravitreal; cited from earlier work.

Take `CNC(=O)c1ccccc1Sc1ccc2c(/C=C/c3ccccn3)n[nH]c2c1` [axitinib, N-methyl-2-[3-((E)-2-pyridin-2-yl-vinyl)-1H-indazol-6-ylsulfanyl]-benzamide]: the “Solubility of axitinib in 25% ethanol/75% water mix (v/v)” value in the data set “Solubility of axitinib” is on record as “approximately 19 μg/mL”. The “Clearance half-life (t1/2)” value in data set [1] (patients, oral (Rugo et al.)) was “a few hours”.
As for “Avastin: anti-VEGF therapeutic, 1.25 mg intravitreal”, in data set [2], the “Vascular leakage after VEGF challenge, late” value is reported as “after 3 months vascular leakage re-occurred”. Besides, in data set [3], the Half-life in rabbits is recorded as 6.6 days.
Take “aflibercept: anti-VEGF agent, large molecule”: the “t1/2 in the human eye” value in data set [1] is reported as “several days”.
Consider “ranibizumab: anti-VEGF agent, large molecule”, for which the “t1/2 in the human eye” value in data set [1] is “several days”.
